Laboratory results published in US10537725B2, “Ultrasound-assisted convection enhanced delivery of compounds in vivo with a transducer cannula assembly” (CORNELL UNIVERSITY, priority 2010, dated 2020).

Test: Evans blue dye volume distribution in rat brain after CED or ultrasound-assisted CED (UCED) infusion into the caudate
Assay type: in vivo, Sprague-Dawley rats
Details: for total distribution volume of EBD: 30 min
Experimental: A total of 40 Sprague-Dawley rats (350 to 450 g) were divided into two equal groups and further divided into four equal subgroups (n=5 in each). The rats were anesthetized, secured into ear bars on a stereotaxic apparatus, and a craniotomy was performed. The caudate of the rat brain was infused with 0.25 wt % Evans blue dye (EBD) in Phosphate-Buffered Saline (PBS) at two different infusion rates of 0.25 μL/min for group 1, and 0.5 μL/min for group 2. […] Using the TCA without ultrasound, the four control subgroups were infused without and with microbubbles (CED and CED+MB). The four UCED subgroups (UCED and UCED+MB) followed the same protocol with the addition of simultaneous continuous wave 1.34 MHz ultrasound operating at a total acoustic power of 0.11+/−0.005 W and peak spatial intensity at the cannula tip of I=49.7 mW/cm^2. Frozen sectioning and histology were performed on the brains, and infusion distribution was three-dimensionally reconstructed using MatLab® analysis. Hematoxylin and Eosin (H&E) staining was used to assess tissue damage and morphological changes to the brain. The application of UCED and UCED+MB improved EBD total volumetric distribution by 2.24 to 3.25 and 1.16 to 1.70 times, respectively (p<0.001). On gross and histological examination, no ultrasound or microbubble related damage to the brain tissue was found. The TCA and battery-powered ultrasound device show promise to improve the distribution of infusate during CED in clinical practice.
Rats were anesthetized and euthanized by procedures approved by the Institutional Animal Care and Use Committee (IACUC) at Cornell University. A total of 40 Sprague-Dawley rats (350 to 450 g) were divided into two groups (designated Groups 1 and 2) with four subgroups (5 rats in each subgroup). Animals were anesthetized by inhalation of isoflurane gas and secured in a stereotaxic frame. The head was shaved, 0.5 ml of bupivicaine was applied under the skin as a local anesthetic and an incision was made in the skin along the dorsal midline of the skull. A small craniotomy (6-7 mm diameter) was made over the left side of the exposed skull using a dental drill. The TCA was guided using a micromanipulator to +0 mm anterior, +3 mm lateral and −5.5 mm ventral from bregma, lowered at 0.25 mm per second into the caudate of the rat brain and allowed to equilibrate for two minutes. 1-2 ml of artificial cerebral spinal fluid (aCSF) and a gel-foam dam was used to couple acoustic energy from the face of the TCA into the rodent brain. The TCA was powered on with the pocket-sized ultrasound system at the +/−11.1 V setting and infusion began.
For each rat, the entire experiment lasted a total of 30 min. The control subgroups of CED and CED+MB (n=5 in each) were infused using the TCA with no ultrasound therapy for 30 min. For the experimental subgroups of UCED and UCED+MB (n=5 in each), infusion and ultrasound exposure at an acoustic power of 0.11+/−0.005 W, and TCA face intensity of 0.095 W/cm^2 which corresponded to a cannula tip intensity of 0.0497 W/cm^2 for 30 min was applied simultaneously. Filtered Evan's blue dye (EBD) 0.25 wt % in phosphate buffered saline (PBS) without or with 5×10^5 stabilized microbubbles per μL with median diameter of 2.5 μm (Targestar™-P, Targeson Inc.) was infused using a microinfusion pump (Worker Bee™, Bioanalytical Systems, Inc.).
The starting infusion flow rate for the experiments of Group 1 was 0.05 μL/min for 5 min; the infusion flow rate was then increased to 0.1 μL/min for an additional 5 min, to a final flow rate of 0.25 μL/min for 20 min. The starting infusion flow rate of Group 2 was 0.1 μL/min for 5 min; the infusion flow rate was then increased to 0.25 μL/min for an additional 5 min, to a final flow rate of 0.5 μL/min for 20 min.
After 30 min of simultaneous infusion and ultrasound therapy the experiment was stopped. The TCA was left in the tissue for 1-2 min before being removed while euthanasia via cardiac urethane injection was performed. […]

For `Cc1cc(-c2ccc(/N=N/c3ccc4c(S(=O)(=O)O)cc(S(=O)(=O)O)c(N)c4c3O)c(C)c2)ccc1/N=N/c1ccc2c(S(=O)(=O)O)cc(S(=O)(=O)O)c(N)c2c1O` [EBD, Evans blue dye], the “total distribution volume of EBD” value (group 1, 0.25 μL/min infusion, left caudate, CED) was 13.6 mm^3, the “total distribution volume of EBD” value (group 1, 0.25 μL/min infusion, left caudate, CED+MB) was 15.9 mm^3 and the “total distribution volume of EBD” value (group 1, 0.25 μL/min infusion, left caudate, UCED) was 33.1 mm^3. The “total distribution volume of EBD” value (group 1, 0.25 μL/min infusion, left caudate, UCED+MB) was 27.0 mm^3, the “total distribution volume of EBD” value (group 1, 0.25 μL/min infusion, left hemisphere, CED (no ultrasound)) was 20.6 mm^3 and the “total distribution volume of EBD” value (group 1, 0.25 μL/min infusion, left hemisphere, CED+MB (microbubbles, no ultrasound)) was 19.7 mm^3. The “total distribution volume of EBD” value (group 1, 0.25 μL/min infusion, left hemisphere, UCED (1.34 MHz ultrasound)) was 46.3 mm^3, the “total distribution volume of EBD” value (group 1, 0.25 μL/min infusion, left hemisphere, UCED+MB) was 26.9 mm^3 and the “increase of EBD distribution volume” value (group 1, 0.25 μL/min, left caudate, UCED compared to CED) was 2.44 ×. The “increase of EBD distribution volume” value (group 1, 0.25 μL/min, left caudate, UCED+MB compared to CED+MB) was 1.7 ×, the “increase of EBD distribution volume” value (group 1, 0.25 μL/min, left hemisphere, UCED compared to CED) was 2.24 × and the “increase of EBD distribution volume” value (group 1, 0.25 μL/min, left hemisphere, UCED+MB compared to CED+MB) was 1.37 ×. The “total distribution volume of EBD” value (group 2, 0.5 μL/min infusion, left caudate, UCED) was 70.2 mm^3, the “total distribution volume of EBD” value (group 2, 0.5 μL/min infusion, left caudate, UCED+MB) was 30.2 mm^3 and the “total distribution volume of EBD” value (group 2, 0.5 μL/min infusion, left hemisphere, CED) was 37.4 mm^3. The “total distribution volume of EBD” value (group 2, 0.5 μL/min infusion, left hemisphere, CED+MB) was 31.9 mm^3, the “total distribution volume of EBD” value (group 2, 0.5 μL/min infusion, left hemisphere, UCED) was 111 mm^3 and the “total distribution volume of EBD” value (group 2, 0.5 μL/min infusion, left hemisphere, UCED+MB) was 37.1 mm^3. For the same compound, the “increase of EBD distribution volume” value (group 2, 0.5 μL/min, left caudate, UCED compared to CED) was 3.25 ×, the “increase of EBD distribution volume” value (group 2, 0.5 μL/min, left caudate, UCED+MB compared to CED+MB) was 1.54 × and the “increase of EBD distribution volume” value (group 2, 0.5 μL/min, left hemisphere, UCED compared to CED) was 2.96 ×. For the same compound, the “increase of EBD distribution volume” value (group 2, 0.5 μL/min, left hemisphere, UCED+MB compared to CED+MB) was 1.16 ×.
